# Test results taken from patent US8129137B2, “Two-photon probe for real-time monitoring of intracellular free zinc ions, method for preparing the probe and method for real-time monitoring of intracellular free zinc ions using the probe” (Korea University Industrial & Academic Collaboration …, priority 2008, dated 2012).
# Columns and labels:
# [1] = Fluorescence quantum yield (Coumarin 307 as reference); assay type: physicochemical
# Procedure: The absorption spectra of the two-photon probes were recorded on a Hewlett-Packard 8453 diode array spectrophotometer, and the fluorescence spectra of the two-photon probes were obtained with an Amico-Bowman series 2 luminescence spectrometer with a 1 cm standard quartz cell. The fluorescence quantum yields of the two-photon probes were determined by using Coumarin 307 as the reference by the literature method (J. N. Demas, G. A. Crosby, J. Phys. Chem. 1971, 75, 991-1024.). FIGS. 2a and 2b are one-photon absorption and emission spectra of the two-photon probe AZn1, respectively, and FIGS. 2c and 2d are one-photon absorption and emission spectra of the two-photon probe AZn2, respectively.
# [2] = One-photon fluorescence intensity as a function of pH; assay type: physicochemical; details: biologically relevant pH; 1 μM probe, 30 mM MOPS, 100 mM KCl
# Procedure: FIGS. 8a and 8b show the one-photon fluorescence intensities of AZn1 and AZn2 (1 μM for each), respectively, as a function of pH when free Zn^2+ were absent (∘) and present at a concentration of 1 μM (▪) in mixed solutions of 30 mM MOPS and 100 mM KCl.
# [3] = tested on: 293 cells; assay: Two-photon microscopy of probe-labeled 293 cells; assay type: cell-based; details: for TPEF of labeled cells collected at 360-460 nm / TPEF of labeled cells collected at 500-620 nm: 2 μM probe, excitation 780 nm
# Procedure: 293 cells were incubated in DMEM (WelGene) supplemented with 10% FBS (WelGene), penicillin (100 unit/ml) and streptomycin (100 μg/ml).
# Two days before imaging, the cells were transferred to glass-bottomed dishes (MatTek) and plated thereon. For labeling, the growth medium was replaced with FBS-free DMEM. The cells were incubated under 5% CO2, 37° C., using a 2 μM sensor for 30 minutes, washed three times with phosphate-buffered saline (PBS; Gibco), and further incubated in a colorless serum-free medium. Meanwhile, primary cortical cultures were taken from cerebral cortices of 1-day-old rats (Sprague-Dawley (SD)). The cerebral cortices were dissociated in Hank's balanced salt solution (HBSS; Gibco BRL, Gaithersburg, Md., USA) containing 1 U/ml papain (Worthington Biochemical Corporation, NJ, USA), plated at a density of 100 to 200 cells/mm^2 on poly-D-lysine and laminin-coated glass cover slips, and maintained in Neurobasal media (Gibco) supplemented with 2% B-27 (Gibco) and penicillin/streptomycin in a CO2 incubator at 37° C. After […] 7-15 days, the cortical cultures were washed three times with PBS and incubated in the presence of AZn2 (2 μM) in PBS at 37° C. for 30 minutes.
# Two-photon fluorescence microscopy images of cells and tissue labeled with AZn2 were obtained with spectral confocal and multiphoton microscopes (Leica TCS SP2) with a ×100 oil objective and numerical aperture (NA)=1.30. The two-photon fluorescence microscopy images were obtained by exciting the two-photon probe with a mode-locked titanium-sapphire laser source (Coherent Chameleon, 90 MHz, 200 fs) set at wavelength of 780 nm and an output power of 1,230 mW, which corresponded to approximately 10 mW average power in the focal plane. To obtain images at 360-460 nm and 500-620 nm range, internal PMTs were used to collect the signals in an 8 bit unsigned 512×512 pixels at 400 Hz scan speed.
# Moreover, because the fluorescence intensities of the two-photon probes increase slightly at pH<4 (FIGS. 8a and 8b), there is a possibility that the probes in the acidic vesicles might partially contribute to the TPM images. To rule out such possibility, 293 cells and primary cortical cultures were co-stained with AZn2 and LysoTracker Red (LTR), a well known one-photon fluorescent probe for the acidic vesicles, and the images were co-localized.
# More specifically, (a) and (f) are bright field images, (b) and (g) are pseudo colored images of the AZn2-labeled 293 cells collected at 360-460 nm, (c) and (h) are pseudo colored images of the AZn2-labeled 293 cells collected at 500-580 nm, (d) and (i) are OPM images of the LTR-labeled 293 cells collected at 600-650 nm, and (e) and (j) are co-localized images. The one-photon and two-photon excitations were performed at 543 nm and 780 nm, respectively, the scale bar is 30 μm, and the images shown are representative images from replicate experiments (n=5).
# FIG. 13 is images of AZn1- and LTR (2 μM for each)-labeled 293 cells: (a)-(e) and (f)-(j) are images of the labeled cells before and after addition of 100 μM TPEN to the imaging solution, respectively. More specifically, (a) and (f) are bright field images; (b) and (g) are pseudo colored images of the AZn1-labeled 293 cells collected at 360-460 nm; (c) and (h) are pseudo colored images of the AZn1-labeled 293 cells collected at 500-580 nm; (d) and (i) are OPM images of the LTR-labeled 293 cells collected at 600-650 nm; and (e) and (j) are co-localized images. […]
# [4] = Measurement of water solubility; assay type: physicochemical; details: kinetic from dmso stock, H2O, 0.2% DMSO, maximum concentration in the linear region of fluorescence intensity vs probe concentration
# Procedure: A small amount of each of the two-photon probes (AZn2 and AZn1) prepared in Examples 1 and 2 was dissolved in DMSO to prepare a stock solution ([…]). The solution was diluted to 6.0×10^−3˜6.0×10^−5 M and added to a cuvette containing 3.0 mL of H2O by using a micro syringe. In all cases, the concentration of DMSO in H2O was maintained to be 0.2%.
# FIGS. 1a through 1d are plots showing variations in the fluorescence intensity of the two-photon probes at different concentrations.
# The plots of FIGS. 1b and 1d show variations in the fluorescence intensity of AZn2 and AZn1 as a function of the probe concentration, respectively, and have a profile in which the fluorescence intensity increases linearly at low concentrations. […] The maximum concentration in the linear region was taken as the water solubility. The water solubilities of the two probes were all 3.0 μM.
# [5] = 20 mM MOPS, 100 mM KCl, 10 mM EGTA, pH 7.2, absence of Zn2+, ±10%
# [6] = 20 mM MOPS, 100 mM KCl, 10 mM EGTA, pH 7.2, presence of Zn2+, ±10%
"fluorescence quantum yield φ [1, 5]","fluorescence quantum yield φ [1, 6]","fluorescence quantum yield φ ([1]; 1,4-dioxane, ±15%)","fluorescence quantum yield φ ([1]; DMF, ±15%)","fluorescence quantum yield φ ([1]; Ethanol, ±15%)","fluorescence quantum yield φ ([1]; H2O, ±15%)",pH sensitivity of fluorescence [2],solubility [4],SMILES,TPEF of labeled cells collected at 360-460 nm [3],TPEF of labeled cells collected at 500-620 nm [3],intracellular location of probe [3]
0.022,0.47,0.19,0.055,0.057,0.022,pH insensitivity,3 µM,Nc1ccc(NCCN(Cc2ccccn2)Cc2ccccn2)cc1 [AZn1],no TPEF,appreciable TPEF,–
0.012,0.65,0.094,0.037,0.039,0.012,pH insensitivity,3 µM,COc1cc(NC(=O)CN(C)c2ccc3cc(C(C)=O)ccc3c2)ccc1NCCN(Cc1ccccn1)Cc1ccccn1 [AZn2],no TPEF,appreciable TPEF,predominantly located in the cytosolic compartments
